Test results: US6713265B1 (Synaptic Pharmaceutical Corporation, priority 1999, dated 2004)

Tests used:
5HT1Dα = 5HT1Dα (Homo sapiens, UniProt P28221); experiment: Binding at cloned human 5HT1Dα receptor
Protocol: The cell line for the 5HT1Dα receptor, designated as Ltk-8-30-84, was deposited on Apr. […] The cell for the 5HT1Dβ receptor, designated as Ltk-11, was deposited on Apr. […] Membrane preparations comprising these receptors were prepared as described below, and suspended in 50 mM Tris-HCl buffer (pH 7.4 at 37° C.) containing 10 mM MgCl2, 0.2 mM EDTA, 10 μM pargyline, and 0.1% ascorbate. The binding of compounds was determined in competition binding assays by incubation for 30 minutes at 37° C. in the presence of 5 nM [^3H]serotonin. Nonspecific binding was determined in the presence of 10 μM serotonin.

α1b = molecular target: T1, α1b (Homo sapiens, UniProt P35368); experiment: Binding at cloned human α1b adrenergic receptor
T1 sequence (P35368 1-520): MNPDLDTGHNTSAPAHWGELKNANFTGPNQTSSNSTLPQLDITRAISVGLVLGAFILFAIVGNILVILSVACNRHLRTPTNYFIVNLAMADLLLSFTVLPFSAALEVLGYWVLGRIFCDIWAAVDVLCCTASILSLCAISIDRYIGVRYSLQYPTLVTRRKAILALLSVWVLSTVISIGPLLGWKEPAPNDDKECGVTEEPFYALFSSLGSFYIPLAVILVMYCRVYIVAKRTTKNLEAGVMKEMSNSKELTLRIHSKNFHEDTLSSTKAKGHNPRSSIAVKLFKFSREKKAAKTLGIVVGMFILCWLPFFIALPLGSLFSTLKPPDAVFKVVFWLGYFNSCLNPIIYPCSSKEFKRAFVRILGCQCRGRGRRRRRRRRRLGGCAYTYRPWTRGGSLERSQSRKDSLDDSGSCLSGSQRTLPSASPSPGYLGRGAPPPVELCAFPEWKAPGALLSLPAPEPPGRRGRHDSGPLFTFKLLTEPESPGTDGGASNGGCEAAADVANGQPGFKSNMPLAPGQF

α2a = molecular target: T2, α2a (Homo sapiens, UniProt P08913); experiment: Binding at cloned human α2a adrenergic receptor
T2 sequence (P08913 1-465): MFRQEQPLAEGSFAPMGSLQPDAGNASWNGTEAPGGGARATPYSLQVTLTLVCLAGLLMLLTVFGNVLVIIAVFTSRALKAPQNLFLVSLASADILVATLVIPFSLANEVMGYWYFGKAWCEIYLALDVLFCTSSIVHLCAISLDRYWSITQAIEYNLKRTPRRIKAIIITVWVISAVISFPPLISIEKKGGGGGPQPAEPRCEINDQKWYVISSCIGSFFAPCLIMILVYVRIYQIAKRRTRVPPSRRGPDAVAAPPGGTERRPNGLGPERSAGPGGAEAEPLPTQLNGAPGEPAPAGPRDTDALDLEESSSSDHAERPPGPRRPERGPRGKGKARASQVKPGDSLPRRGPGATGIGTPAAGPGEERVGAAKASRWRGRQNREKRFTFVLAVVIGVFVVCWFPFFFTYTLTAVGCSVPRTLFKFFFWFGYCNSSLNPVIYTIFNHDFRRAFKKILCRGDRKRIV

α1d = molecular target: T3, α1d (Homo sapiens, UniProt P25100); experiment: Binding at cloned human α1d adrenergic receptor
T3 sequence (P25100 1-572): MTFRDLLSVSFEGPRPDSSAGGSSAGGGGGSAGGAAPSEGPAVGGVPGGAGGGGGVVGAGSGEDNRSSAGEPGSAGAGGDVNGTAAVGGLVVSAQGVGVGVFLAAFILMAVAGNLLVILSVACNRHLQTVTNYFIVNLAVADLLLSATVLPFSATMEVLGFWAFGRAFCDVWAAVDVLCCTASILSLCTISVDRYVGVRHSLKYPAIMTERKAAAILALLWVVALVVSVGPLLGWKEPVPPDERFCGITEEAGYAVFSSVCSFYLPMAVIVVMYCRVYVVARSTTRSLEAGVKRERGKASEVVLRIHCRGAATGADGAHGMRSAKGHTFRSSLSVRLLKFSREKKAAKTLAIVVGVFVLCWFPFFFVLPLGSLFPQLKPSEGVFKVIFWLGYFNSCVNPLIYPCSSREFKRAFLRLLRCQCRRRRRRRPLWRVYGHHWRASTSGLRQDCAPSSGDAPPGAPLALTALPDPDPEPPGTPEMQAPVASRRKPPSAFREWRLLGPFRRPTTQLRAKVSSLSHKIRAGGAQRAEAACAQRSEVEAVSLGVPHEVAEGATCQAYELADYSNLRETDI

human Y1 receptor = molecular target: T4, human Y1 receptor (Homo sapiens, UniProt P25929); experiment: ^125I-PYY binding to membranes, cloned human Y1 receptor; details: read-out: Binding Affinity Ki vs. ^125I-PYY, Human Receptor Y1; Table 14; stably transfected 293 cells (compound 1 also COS-7)
T4 construct: expressed in transfected cells; host or cells: COS-7 (transient)
T4 sequence (P25929 1-384): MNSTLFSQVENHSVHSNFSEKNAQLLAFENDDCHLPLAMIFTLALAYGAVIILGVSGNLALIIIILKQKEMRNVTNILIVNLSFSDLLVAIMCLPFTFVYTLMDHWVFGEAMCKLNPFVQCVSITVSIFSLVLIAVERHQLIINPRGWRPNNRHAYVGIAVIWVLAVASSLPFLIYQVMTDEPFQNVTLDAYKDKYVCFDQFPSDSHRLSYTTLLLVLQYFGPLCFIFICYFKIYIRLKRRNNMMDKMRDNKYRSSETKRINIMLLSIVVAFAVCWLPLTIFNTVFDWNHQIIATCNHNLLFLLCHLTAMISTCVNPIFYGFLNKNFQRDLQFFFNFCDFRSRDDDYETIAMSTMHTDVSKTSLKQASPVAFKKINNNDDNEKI

human Y5 receptor = molecular target: T5, human Y5 receptor (Homo sapiens, UniProt Q15761); experiment: Radioimmunoassay of cAMP, cells stably expressing human Y5 receptor; type: cell-based; set-up: Ki Values, Human Y5; apparent Kd; pKd; The isolated clone (CG-19) turned out to contain a full length cDNA; The longest open reading frame encodes a 455 amino acid protein; details: block of NPY-induced inhibition of cAMP accumulation, forskolin-stimulated LM(tk-) cells, human Y5
T5 sequence (Q15761 1-445): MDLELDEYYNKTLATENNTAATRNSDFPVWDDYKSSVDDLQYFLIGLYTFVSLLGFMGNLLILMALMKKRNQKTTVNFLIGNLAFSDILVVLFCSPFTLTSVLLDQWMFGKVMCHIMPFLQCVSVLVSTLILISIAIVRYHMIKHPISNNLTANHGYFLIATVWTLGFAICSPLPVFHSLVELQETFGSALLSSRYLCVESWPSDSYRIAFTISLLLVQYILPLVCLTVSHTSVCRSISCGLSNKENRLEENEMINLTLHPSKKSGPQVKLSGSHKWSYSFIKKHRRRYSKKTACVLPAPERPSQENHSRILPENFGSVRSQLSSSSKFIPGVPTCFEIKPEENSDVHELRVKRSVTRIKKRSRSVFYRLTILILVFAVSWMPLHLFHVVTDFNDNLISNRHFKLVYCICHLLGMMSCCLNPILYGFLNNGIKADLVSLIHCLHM
Protocol: LM(tk-) cells stably transfected with the human Y5 receptor were routinely converted from an adherent monolayer to a viable suspension. […] The cell suspension was maintained in a shaking incubator at 37° C., 5% CO2 for 24 hours. […] Alternatively, cells may be returned to adherent cell culture in complete DMEM by distribution into 96-well microtiter plates coated with poly-D-lysine (0.01 mg/ml) followed by incubation at 37° C., 5% CO2 for 24 hours.
The maximum inhibition of cAMP accumulation (Emax) and the concentration producing a half-maximal effect (EC50) were determined by nonlinear regression analysis according to a 4 parameter logistic equation.
The ability of the compounds to antagonize the Y-type receptors is reported as the Kb. […] The results shown are representative of at least three independent experiments.

human Y4 receptor = molecular target: T6, human Y4 receptor (Homo sapiens, UniProt P50391); experiment: ^125I-PYY binding to membranes, cloned human Y4 receptor; details: read-out: Binding Affinity Ki vs. ^125I-PYY, Human Receptor Y4; Table 14; stably transfected LM(tk-) cells
T6 construct: expressed in transfected cells; host or cells: COS-7 (transient)
T6 sequence (P50391 whole entry): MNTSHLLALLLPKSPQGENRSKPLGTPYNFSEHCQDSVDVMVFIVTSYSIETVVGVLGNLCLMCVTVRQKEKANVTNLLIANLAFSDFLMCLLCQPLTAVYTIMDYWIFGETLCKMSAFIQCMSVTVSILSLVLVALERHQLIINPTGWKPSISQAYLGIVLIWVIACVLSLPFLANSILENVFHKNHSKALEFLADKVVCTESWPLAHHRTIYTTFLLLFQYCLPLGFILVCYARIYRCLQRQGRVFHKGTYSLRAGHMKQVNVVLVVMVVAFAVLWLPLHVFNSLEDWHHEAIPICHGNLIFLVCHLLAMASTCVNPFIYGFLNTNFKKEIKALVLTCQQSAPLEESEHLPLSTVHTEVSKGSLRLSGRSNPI

5HT1Dα, sequence (P28221 whole entry): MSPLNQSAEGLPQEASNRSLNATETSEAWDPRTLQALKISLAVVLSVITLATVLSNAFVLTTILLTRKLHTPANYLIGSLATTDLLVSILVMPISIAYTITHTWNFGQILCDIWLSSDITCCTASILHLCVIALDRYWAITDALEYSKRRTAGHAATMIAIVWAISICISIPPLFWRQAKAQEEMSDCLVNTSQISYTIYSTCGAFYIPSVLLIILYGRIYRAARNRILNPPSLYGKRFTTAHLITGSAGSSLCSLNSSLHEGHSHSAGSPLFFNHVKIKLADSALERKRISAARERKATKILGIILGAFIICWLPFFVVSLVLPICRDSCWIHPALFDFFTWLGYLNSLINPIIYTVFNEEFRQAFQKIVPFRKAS

Row | SMILES | pKi 5HT1Dα (5HT1Dα) | pKi α1b (α1b) | pKi α2a (α2a) | pKi α1d (α1d) | Ki (human Y1 receptor) [µM] | Kb (human Y5 receptor) [µM] | Ki (human Y4 receptor) [µM]
1 | Cl.O=S(=O)(NC[C@H]1CC[C@H](CNCC2CCc3ccccc3C2)CC1)c1cccc2ccccc12 (mixture of isomers) [Compound 19] | 6.04 | 7.35 | 6.74 | 6.90 | 3.55 | 0.023 | 11.7
2 | Cl.O=[N+]([O-])c1ccccc1S(=O)(=O)NC[C@H]1CC[C@H](CNCC2CCc3ccccc3C2)CC1 (mixture of isomers) [Compound 20] | 5.94 | 7.22 | 7.31 | 7.01 | 16 | 0.026 | 20.4
3 | Cl.Cl.Nc1ccccc1S(=O)(=O)NC[C@H]1CC[C@H](CNCC2CCc3ccccc3C2)CC1 (mixture of isomers) [Compound 22] | 5.98 | 6.98 | 7.05 | 6.80 | 17.2 | 0.003 | 27.5
